According to patent USRE31731E, “Herbicidal 4-trifluoromethyl-4-nitrodiphenyl ethers” (priority 1978, dated 1984):

test system: Monocots; test: Herbicidal activity, preemergence, monocot weeds (Table II); format: in vivo; details: pre-emergence, 336 h, 2 lb./A., about 2 weeks, read-out: % control (percent of plants killed)
Experimental: (§1) Using the procedure described below, diphenyl ethers were evaluated for control of the following weeds: […]
(§2) barnyardgrass (Echinochloa crusgalli) crabgrass (Digitaria spp.) nutsedge (Cyperus esculentus)
(§3) At 2 and 4 pounds per acre:
(§4) **Bermudagrass (Cynodon dactylon)
(§5) *downy brome (Bromus tectorum) foxtail (Setaria faberii)
(§6) Johnsongrass (Sorghum halepense) […]
(§7) quackgrass (Agropyron repens)
(§8) *ryegrass (Lolium perenne)
(§9) *yellow millet (Panicum miliaceum)
(§10) The following test procedure is employed. Seeds of selected crops and weeds are planted in soil in flats. For preemergence tests, the flats are treated with the test compound immediately after the planting. For postemergence tests, the seeds are allowed to germinate, and after 2 weeks the flats are treated with the test compound. The compound to be evaluated is dissolved in acetone, diluted with water, and sprayed over the flats using a carrier volume equivalent to 50 gallons per acre at the rate of application (pounds per acre, lb/A.) specified in the tables. About 2 weeks after the application of the test compound, the state of growth of the plants is observed and the phytotoxic effect of the compound is evaluated. Table II gives the average percent control achieved by the test compounds in terms of the percent of the plants which are killed by the compounds.

Structure (SMILES)	pest or weed control at 2241.7 g/ha
O=[N+]([O-])c1ccc(Oc2ccc(C(F)(F)F)cc2Cl)cc1OCC(F)(F)F [Example 11]	88%
CNC(=O)C(C)Oc1cc(Oc2ccc(C(F)(F)F)cc2Cl)ccc1[N+](=O)[O-] (stereo not shown) [Example 52]	98%
COC(=O)c1cc(Oc2ccc(C(F)(F)F)cc2Cl)ccc1[N+](=O)[O-] [Example 49, 2-chloro-α,α,α-trifluoro-p-tolyl-3-carbomethoxy-4-nitrophenyl ether]	100%
COC(=O)C(C)Oc1cc(Oc2ccc(C(F)(F)F)cc2Cl)ccc1[N+](=O)[O-] (stereo not shown) [Example 50]	98%

same assay, conditions: pre-emergence, 336 h, 4 lb./A., about 2 weeks, read-out: % control (percent of plants killed)

Structure (SMILES)	pest or weed control at 4483.4 g/ha
O=[N+]([O-])c1ccc(Oc2ccc(C(F)(F)F)cc2Cl)cc1OCC(F)(F)F [Example 11]	81%
CNC(=O)C(C)Oc1cc(Oc2ccc(C(F)(F)F)cc2Cl)ccc1[N+](=O)[O-] (stereo not shown) [Example 52]	79%
COC(=O)c1cc(Oc2ccc(C(F)(F)F)cc2Cl)ccc1[N+](=O)[O-] [Example 49, 2-chloro-α,α,α-trifluoro-p-tolyl-3-carbomethoxy-4-nitrophenyl ether]	92%
COC(=O)C(C)Oc1cc(Oc2ccc(C(F)(F)F)cc2Cl)ccc1[N+](=O)[O-] (stereo not shown) [Example 50]	90%

test system: Dicots; test: Herbicidal activity, preemergence, dicot weeds (Table II); format: in vivo; details: pre-emergence, 336 h, 2 lb./A., about 2 weeks, read-out: % control (percent of plants killed)
Experimental: as §1
(§11) bindweed (Convolvulus arvensis) curly dock (Remex crispus) velvetleaf (Abutilon theophrasti) wild mustard (Brassica haber)
(§12) At 2 and 4 pounds per acre: […]
(§13) cocklebur (Xanthium pensylvanicum)
(§14) **coffeeweed (Sesbania macrocarpa)
(§15) *curly dock (Rumex crispus)
(§16) *lambsquarters (Chenopodium album) morningglory (Ipomoea purpurea)
(§17) *pigweed (Amaranthus retroflexus)
(§18) **ragweed (Ambrosia artemisiifolia)
(§19) *smartweed (Polygonum pensylvanicum)
(§20) **tomato (Lycopersicon esculentum)
(§21) *wild carrot (Daucus carota)
(§22) *wild mustard (Brassica haber)
as §10

Structure (SMILES)	pest or weed control at 2241.7 g/ha
O=[N+]([O-])c1ccc(Oc2ccc(C(F)(F)F)cc2Cl)cc1OCC(F)(F)F [Example 11]	99%
CNC(=O)C(C)Oc1cc(Oc2ccc(C(F)(F)F)cc2Cl)ccc1[N+](=O)[O-] (stereo not shown) [Example 52]	75%
COC(=O)c1cc(Oc2ccc(C(F)(F)F)cc2Cl)ccc1[N+](=O)[O-] [Example 49, 2-chloro-α,α,α-trifluoro-p-tolyl-3-carbomethoxy-4-nitrophenyl ether]	100%
COC(=O)C(C)Oc1cc(Oc2ccc(C(F)(F)F)cc2Cl)ccc1[N+](=O)[O-] (stereo not shown) [Example 50]	100%

same assay, conditions: pre-emergence, 336 h, 4 lb./A., about 2 weeks, read-out: % control (percent of plants killed)

Structure (SMILES)	pest or weed control at 4483.4 g/ha
O=[N+]([O-])c1ccc(Oc2ccc(C(F)(F)F)cc2Cl)cc1OCC(F)(F)F [Example 11]	98%
CNC(=O)C(C)Oc1cc(Oc2ccc(C(F)(F)F)cc2Cl)ccc1[N+](=O)[O-] (stereo not shown) [Example 52]	67%
COC(=O)c1cc(Oc2ccc(C(F)(F)F)cc2Cl)ccc1[N+](=O)[O-] [Example 49, 2-chloro-α,α,α-trifluoro-p-tolyl-3-carbomethoxy-4-nitrophenyl ether]	95%
COC(=O)C(C)Oc1cc(Oc2ccc(C(F)(F)F)cc2Cl)ccc1[N+](=O)[O-] (stereo not shown) [Example 50]	83%

test system: Monocots; test: Herbicidal activity, postemergence, monocot weeds (Table II); format: in vivo; details: post-emergence, 336 h, 2 lb./A., about 2 weeks, read-out: % control (percent of plants killed)
Experimental: as §1, §2, §3, §4, §5, §6, §7, §8, §9, §10

Structure (SMILES)	pest or weed control at 2241.7 g/ha
O=[N+]([O-])c1ccc(Oc2ccc(C(F)(F)F)cc2Cl)cc1OCC(F)(F)F [Example 11]	100%
CNC(=O)C(C)Oc1cc(Oc2ccc(C(F)(F)F)cc2Cl)ccc1[N+](=O)[O-] (stereo not shown) [Example 52]	93%
COC(=O)c1cc(Oc2ccc(C(F)(F)F)cc2Cl)ccc1[N+](=O)[O-] [Example 49, 2-chloro-α,α,α-trifluoro-p-tolyl-3-carbomethoxy-4-nitrophenyl ether]	77%
COC(=O)C(C)Oc1cc(Oc2ccc(C(F)(F)F)cc2Cl)ccc1[N+](=O)[O-] (stereo not shown) [Example 50]	100%

same assay, conditions: post-emergence, 336 h, 4 lb./A., about 2 weeks, read-out: % control (percent of plants killed)

Structure (SMILES)	pest or weed control at 4483.4 g/ha
O=[N+]([O-])c1ccc(Oc2ccc(C(F)(F)F)cc2Cl)cc1OCC(F)(F)F [Example 11]	82%
CNC(=O)C(C)Oc1cc(Oc2ccc(C(F)(F)F)cc2Cl)ccc1[N+](=O)[O-] (stereo not shown) [Example 52]	87%
COC(=O)c1cc(Oc2ccc(C(F)(F)F)cc2Cl)ccc1[N+](=O)[O-] [Example 49, 2-chloro-α,α,α-trifluoro-p-tolyl-3-carbomethoxy-4-nitrophenyl ether]	86%
COC(=O)C(C)Oc1cc(Oc2ccc(C(F)(F)F)cc2Cl)ccc1[N+](=O)[O-] (stereo not shown) [Example 50]	97%

test system: Dicots; test: Herbicidal activity, postemergence, dicot weeds (Table II); format: in vivo; details: post-emergence, 336 h, 2 lb./A., about 2 weeks, read-out: % control (percent of plants killed)
Experimental: as §1, §11, §12, §13, §14, §15, §16, §17, §18, §19, §20, §21, §22, §10

Structure (SMILES)	pest or weed control at 2241.7 g/ha
O=[N+]([O-])c1ccc(Oc2ccc(C(F)(F)F)cc2Cl)cc1OCC(F)(F)F [Example 11]	100%
CNC(=O)C(C)Oc1cc(Oc2ccc(C(F)(F)F)cc2Cl)ccc1[N+](=O)[O-] (stereo not shown) [Example 52]	100%
COC(=O)c1cc(Oc2ccc(C(F)(F)F)cc2Cl)ccc1[N+](=O)[O-] [Example 49, 2-chloro-α,α,α-trifluoro-p-tolyl-3-carbomethoxy-4-nitrophenyl ether]	100%
COC(=O)C(C)Oc1cc(Oc2ccc(C(F)(F)F)cc2Cl)ccc1[N+](=O)[O-] (stereo not shown) [Example 50]	100%

same assay, conditions: post-emergence, 336 h, 4 lb./A., about 2 weeks, read-out: % control (percent of plants killed)

Structure (SMILES)	pest or weed control at 4483.4 g/ha
O=[N+]([O-])c1ccc(Oc2ccc(C(F)(F)F)cc2Cl)cc1OCC(F)(F)F [Example 11]	99%
CNC(=O)C(C)Oc1cc(Oc2ccc(C(F)(F)F)cc2Cl)ccc1[N+](=O)[O-] (stereo not shown) [Example 52]	100%
COC(=O)c1cc(Oc2ccc(C(F)(F)F)cc2Cl)ccc1[N+](=O)[O-] [Example 49, 2-chloro-α,α,α-trifluoro-p-tolyl-3-carbomethoxy-4-nitrophenyl ether]	100%
COC(=O)C(C)Oc1cc(Oc2ccc(C(F)(F)F)cc2Cl)ccc1[N+](=O)[O-] (stereo not shown) [Example 50]	100%

test system: corn; test: Crop tolerance, corn; format: in vivo; details: postemergence; 50% or less kill of crop at rates giving more than 50% kill of weeds
Experimental: as §10
(§23) Following the general test procedure of Example 73, diphenyl ethers are evaluated for significant tolerance (as shown by 50% or less kill of the test crop at levels of application which give more than 50% kill of many or all of the weeds of Example 73) towards some or all of the following common agronomic crops (not all compounds tested against all crops): alfalfa, snapbeans, corn, cotton, cucumbers, peanuts, rape, rice, safflower, soybeans, tomatoes, and wheat.

Structure (SMILES)	Tolerance to corn
CNC(=O)C(C)Oc1cc(Oc2ccc(C(F)(F)F)cc2Cl)ccc1[N+](=O)[O-] (stereo not shown) [Example 52]	Tolerance
COC(=O)c1cc(Oc2ccc(C(F)(F)F)cc2Cl)ccc1[N+](=O)[O-] [Example 49, 2-chloro-α,α,α-trifluoro-p-tolyl-3-carbomethoxy-4-nitrophenyl ether]	Tolerance

same assay, conditions: preemergence; 50% or less kill of crop at rates giving more than 50% kill of weeds

Structure (SMILES)	Tolerance to corn
O=[N+]([O-])c1ccc(Oc2ccc(C(F)(F)F)cc2Cl)cc1OCC(F)(F)F [Example 11]	Tolerance
CNC(=O)C(C)Oc1cc(Oc2ccc(C(F)(F)F)cc2Cl)ccc1[N+](=O)[O-] (stereo not shown) [Example 52]	Tolerance

test system: peanuts; test: Crop tolerance, peanuts; format: in vivo; details: preemergence; 50% or less kill of crop at rates giving more than 50% kill of weeds
Experimental: as §10, §23

Structure (SMILES)	Tolerance to peanuts
CNC(=O)C(C)Oc1cc(Oc2ccc(C(F)(F)F)cc2Cl)ccc1[N+](=O)[O-] (stereo not shown) [Example 52]	Tolerance
COC(=O)c1cc(Oc2ccc(C(F)(F)F)cc2Cl)ccc1[N+](=O)[O-] [Example 49, 2-chloro-α,α,α-trifluoro-p-tolyl-3-carbomethoxy-4-nitrophenyl ether]	Tolerance
COC(=O)C(C)Oc1cc(Oc2ccc(C(F)(F)F)cc2Cl)ccc1[N+](=O)[O-] (stereo not shown) [Example 50]	Tolerance

test system: rice; test: Crop tolerance, rice; format: in vivo; details: postemergence or on transplanted rice; 50% or less kill of crop at rates giving more than 50% kill of weeds
Experimental: as §10, §23

Structure (SMILES)	Tolerance to rice
O=[N+]([O-])c1ccc(Oc2ccc(C(F)(F)F)cc2Cl)cc1OCC(F)(F)F [Example 11]	Tolerance

same assay, conditions: preemergence; 50% or less kill of crop at rates giving more than 50% kill of weeds

Structure (SMILES)	Tolerance to rice
CNC(=O)C(C)Oc1cc(Oc2ccc(C(F)(F)F)cc2Cl)ccc1[N+](=O)[O-] (stereo not shown) [Example 52]	Tolerance

test system: soybeans; test: Crop tolerance, soybeans; format: in vivo; details: preemergence; 50% or less kill of crop at rates giving more than 50% kill of weeds
Experimental: as §10, §23

Structure (SMILES)	Tolerance to soybeans
O=[N+]([O-])c1ccc(Oc2ccc(C(F)(F)F)cc2Cl)cc1OCC(F)(F)F [Example 11]	Tolerance
CNC(=O)C(C)Oc1cc(Oc2ccc(C(F)(F)F)cc2Cl)ccc1[N+](=O)[O-] (stereo not shown) [Example 52]	Tolerance
COC(=O)c1cc(Oc2ccc(C(F)(F)F)cc2Cl)ccc1[N+](=O)[O-] [Example 49, 2-chloro-α,α,α-trifluoro-p-tolyl-3-carbomethoxy-4-nitrophenyl ether]	Tolerance
COC(=O)C(C)Oc1cc(Oc2ccc(C(F)(F)F)cc2Cl)ccc1[N+](=O)[O-] (stereo not shown) [Example 50]	Tolerance

test system: wheat; test: Crop tolerance, wheat; format: in vivo; details: preemergence; 50% or less kill of crop at rates giving more than 50% kill of weeds
Experimental: as §10, §23

Structure (SMILES)	Tolerance to wheat
COC(=O)C(C)Oc1cc(Oc2ccc(C(F)(F)F)cc2Cl)ccc1[N+](=O)[O-] (stereo not shown) [Example 50]	Tolerance
